Measurements published in paper PMC5415608, “The Effects of Herbicides Targeting Aromatic and Branched Chain Amino Acid Biosynthesis Support the Presence of Functional Pathways in Broomrape” (Frontiers in Plant Science, 2017).

Tests used:
[1] = tested on: T1, EPSPS (P. aegyptiaca 5-enolpyruvylshikimate-3-phosphate synthase); experiment: colorimetric phosphate release assay ([…] nm), partially purified extract; assay type: biochemical, Phelipanche aegyptiaca; settings: callus enzyme; 1 mM shikimate-3-phosphate (natural substrate), 0.1 mM phosphoenolpyruvate, 500 mM MES pH 5.5, 2 mM DTT, 30°C, 15 min; read-out: ID50 (the source's name)
T1 construct: single gene copy found; predicted 64-residue chloroplast transit peptide

[2] = tested on: T2, ALS from young tomato leaves; experiment: colorimetric acetoin assay (creatine/alpha-naphthol, […] nm), partially purified extract; assay type: biochemical, Solanum lycopersicum; settings: young leaf enzyme; 167 mM pyruvate, 16.7 mM MgCl2, 1.67 mM TPP, 16.6 μM FAD, pH 7.0, 37°C, 60 min; read-out: ID50 (the source's name)
T2 construct: gene ALS1; native, partially purified extract of young tomato leaves

[3] = tested on: T3, ALS (P. aegyptiaca acetolactate synthase); experiment: as above; assay type: biochemical, Phelipanche aegyptiaca; settings: flowering shoot enzyme; 167 mM pyruvate, 16.7 mM MgCl2, 1.67 mM TPP, 16.6 μM FAD, pH 7.0, 37°C, 60 min; read-out: ID50 (the source's name)
T3 construct: single gene copy found; predicted 42-residue chloroplast transit peptide

Row | Structure (SMILES) | IC50 [1] [µM] | IC50 [2] [µM] | IC50 [3] [µM]
1 | O=C(O)CNCP(=O)(O)O [glyphosate] | ~8 |  | 
2 | Cc1cnc(C2=NC(C)(C(C)C)C(=O)N2)c(C(=O)O)c1 (centres unmarked) [imazapic] |  | ~0.47 | 2.07 ± 0.07
3 | CC(C)C1(C)N=C(c2ncccc2C(=O)O)NC1=O (centres unmarked) [imazapyr] |  |  | 11.6 ± 1.2
4 | CCS(=O)(=O)c1cccnc1S(=O)(=O)NC(=O)Nc1nc(OC)cc(OC)n1 [rimsulfuron] |  |  | 0.11 ± 0.03
